These results are taken from paper PMC5000766, “Inhibitory Effect of 2,3,5,6-Tetrafluoro-4-[4-(aryl)-1H-1,2,3-triazol-1-yl]benzenesulfonamide Derivatives on HIV Reverse Transcriptase Associated RNase H Activities” (International Journal of Molecular Sciences, 2016).

Some results are limits rather than exact numbers.

The target in data set [1] is T1, HIV-1 RT-associated RNase H (Human immunodeficiency virus type 1 group M subtype B, UniProt P04585).
T1 construct: The recombinant HIV-1 RT protein; His tag; made in house; host or cells: E. coli strain M15
Nature of the data set: HIV-1 RNase H polymerase-independent cleavage assay. Format: biochemical. Particulars: compound concentration required to inhibit the HIV-1 RNase H activity by 50%; recombinant HIV-1 RT.

Another data set concerns human MT-4 cells. Briefly: Cellular cytotoxicity in MT-4 cells. Particulars: preliminary finding.

Turning to `NCc1cn(-c2ccc(S(N)(=O)=O)cc2)nn1` [Compound 9a], the 50% inhibitory concentration (IC50) (as a rule, the concentration that inhibits the measured activity by half) in data set [1] is more than 100 µM.
Consider `NS(=O)(=O)c1ccc(-n2cc(CO)nn2)cc1` [Compound 9b], for which the melting point (as a rule, the temperature, or range, at which the solid turns liquid) is 195 to 197 °C. In addition, in data set [1], the IC50 is more than 100 µM.
Regarding `NS(=O)(=O)c1ccc(-n2cc(-c3ccccc3)nn2)cc1` [Compound 9c], the melting point was in the range of 260 to 261 °C. Moreover, the IC50 in data set [1] was more than 100 µM.
`CCCCCc1ccc(-c2cn(-c3ccc(S(N)(=O)=O)cc3)nn2)cc1` [Compound 9d] came in with a melting point of 253 to 256 °C.
As for `NS(=O)(=O)c1c(F)c(F)c(-n2cc(CO)nn2)c(F)c1F` [Compound 10b], the melting point is 133 to 134 °C.
Turning to `CCCCCc1ccc(-c2cn(-c3c(F)c(F)c(S(N)(=O)=O)c(F)c3F)nn2)cc1` [Compound 10d], the melting point is 197 to 198 °C. In addition, in the data set on human MT-4 cells, the cellular cytotoxicity was more than 7 µM.
For `CCOC(=O)C(=O)CC(=O)/C=C/c1cccn1Cc1ccccc1Cl` [RDS1759, reference compound], the IC50 in data set [1] was 7 ± 1.5 µM.
